By solubility is commonly meant the concentration that dissolves in the medium under given conditions. The term MIC denotes the smallest concentration in the dilution series that meets the test's criterion for growth inhibition. Read a low MIC as inhibition by little substance. Broadly, the LD50 is the dose expected to kill half of the subjects tested.

The values that follow come from patent publication US4546176A, “7-Carboxymethoxyphenylacetamido-3-cephem derivatives and antibacterial preparations containing the same” (Eisai Co., Ltd., priority 1982, dated 1985).

In brackets after ≈: the same amount, converted by molar mass. Bounds are passed on as bounds.

Data set [1] is described as follows: Solubility in water. The class given is physicochemical. The following applies: in distilled water at 25° C.
Data set [2] has as its system Ser. marcescens ES-75. The data set is described as follows: Antibacterial activities (MIC), Ser. marcescens ES-75. Format: cell-based. The following applies: Serratia marcescens, ES75. The source says:
(§1) (1) Antibacterial activities (MIC):

In data set [3] the test system is Escher. coli NIHJ. The data set is described as follows: Antibacterial activities (MIC), Escher. coli NIHJ. The class given is cell-based. To be noted: Escherichia coli.
Text: as §1

Data set [4] deals with Proteus morganii EP-14. In words: Antibacterial activities (MIC), Proteus morganii EP-14. The class given is cell-based. To be noted: Morganella morganii, EP14.
Text: as §1

Data set [5] has as its system Kleb. pneumoniae EK-6. The data set is described as follows: Antibacterial activities (MIC), Kleb. pneumoniae EK-6. The following applies: Klebsiella pneumoniae, EK6. Format: cell-based.
Text: as §1

The subject of data set [6] is Staph. aureus 209-P. In words: Antibacterial activities (MIC), Staph. aureus 209-P. The class given is cell-based. To be noted: Staphylococcus aureus.
Text: as §1

The subject of data set [7] is Pseud. aeruginosa EP-01. In words: Antibacterial activities (MIC), Pseud. aeruginosa EP-01. The class given is cell-based. The following applies: Pseudomonas aeruginosa, EP01.
Text: as §1

Data set [8] can be described thus: Urinary excretion rate in mice. To be noted: mouse, sc, 20 mg/kg subcutaneous, urine up to 6 hours, bioassay. The class given is in vivo, ICR male mice. The procedure:
ICR male mice (body weight: 20-30 g) were used. Each compound was dissolved in an M/15 phosphate buffer (pH 7.0) and administered in an amount of 20 mg/kg by the subcutaneous route. Urine was collected up to 6 hours after the administration. The concentration of the compound was determined by the bioassey technique (the agar-well method) using Pseudomonas aeruginosa as a test microorganism. On the basis of the thus-determined concentration, its excreted amount was obtained. The urinary excretion rate was then calculated from the excreted amount based on the amount administered.

A short description of data set [9]: Acute toxicity LD50 (mouse, oral). The following applies: in vivo. The source says: The acute toxicity values [LD50 (mouse, oral)] of the following compounds were each 4 g/kg or greater;

As to `CC(=O)OCC1=C(C(=O)O)N2C(=O)[C@@H](NC(=O)[C@H](NC(=O)c3coc4cc(O)c(O)cc4c3=O)c3ccc(OCC(=O)O)cc3)[C@H]2SC1` [Example 2], the solubility in [1] is ≥ 200 mg/mL.
On to `Cn1nnnc1SCC1=C(C(=O)O)N2C(=O)[C@@H](NC(=O)[C@H](NC(=O)c3coc4cc(O)c(O)cc4c3=O)c3ccc(OCC(=O)O)cc3)[C@H]2SC1` [Example 4, Disodium 7β-[D-2-(4-carboxymethoxyphenyl)-2-(6,7-dihydroxy-4-oxo-4H-1-benzopyran-3-carboxamido)-acetamido]-3-(1-methyl-5-tetrazolyl)thiomethyl-3-cephem-4-carboxylate], for which the MIC in [2] was 0.2 µg/mL; in [3] it was 0.8 µg/mL; in data set [4], 0.8 µg/mL; in data set [5], ≤ 0.05 µg/mL; in data set [6] it was 6.25 µg/mL; in data set [7] it was ≤ 0.05 µg/mL. Further, the solubility in data set [1] is ≥ 200 mg/mL.
In the case of `O=C(O)COc1ccc([C@@H](NC(=O)c2coc3cc(O)c(O)cc3c2=O)C(=O)N[C@@H]2C(=O)N3C(C(=O)O)=C(CSc4nnnn4CC(=O)O)CS[C@H]23)cc1` [Example 8, Trisodium 7β-[D-2-(4-carboxymethoxyphenyl)-2-(6,7-dihydroxy-4-oxo-4H-1-benzopyran-3-carboxamido)-acetamido]-3-(1-carboxymethyl-5-tetrazolyl)thiomethyl-3-cephem-4-carboxylate], in data set [8], the dose excreted at 6 h turned out to be 20%. Also, the MIC in data set [2] was 0.2 µg/mL; in [3] it was 0.8 µg/mL; in data set [4] it was 1.56 µg/mL; in [5] it was ≤ 0.05 µg/mL; in data set [6], 50 µg/mL; in data set [7], 0.1 µg/mL. For the same compound, in [1], the solubility was ≥ 300 mg/mL.
`CCn1cc(C(=O)NC(C(=O)NC2C(=O)N3C(C(=O)O)=C(CSc4nnnn4C)CSC23)c2ccc(OCC(=O)O)cc2)c(=O)c2cc(OC(C)=O)c(OC(C)=O)cc21` (centres unmarked) [Example 11]: the MIC in data set [2] was ≤ 0.05 µg/mL; in [3], 0.2 µg/mL (≈ 0.235 µM); in data set [4] it was 0.4 µg/mL (≈ 0.47 µM); in [5], ≤ 0.05 µg/mL; in data set [6] it was 12.5 µg/mL (≈ 14.7 µM); in data set [7] it was 0.1 µg/mL (≈ 0.118 µM). Further, the LD50 in [9] is ≥ 4000 mg/kg.
The compound `O=C(O)COc1ccc([C@@H](NC(=O)c2coc3c(O)c(O)ccc3c2=O)C(=O)N[C@@H]2C(=O)N3C(C(=O)O)=C(CSc4nnnn4CC(=O)O)CS[C@H]23)cc1` [Example 20, Trisodium 7β-[D-2-(4-carboxymethoxyphenyl)-2-(7,8-dihydroxy-4-oxo-4H-1-benzopyran-3-carboxamido)-acetamido]-3-(1-carboxymethyl-5-tetrazolyl)thiomethyl-3-cephem-4-carboxylate] displayed a dose excreted at 6 h in data set [8] of 16%. Further, the MIC in data set [2] turned out to be 0.8 µg/mL; in data set [3], 0.8 µg/mL; in data set [4] it was 6.25 µg/mL; in data set [5], 0.1 µg/mL; in [6], 100 µg/mL; in data set [7] it was 0.8 µg/mL.
In data set [8], `Cc1oc2c(O)c(O)ccc2c(=O)c1C(=O)N[C@@H](C(=O)N[C@@H]1C(=O)N2C(C(=O)O)=C(CSc3nnnn3CC(=O)O)CS[C@H]12)c1ccc(OCC(=O)O)cc1` [Example 27, Trisodium 7β-[D-2-(4-carboxymethoxyphenyl)-2-(7,8-dihydroxy-2-methyl-4-oxo-4H-1-benzopyran-3-carboxamido)acetamido]-3-(1-carboxymethyl-5-tetrazolyl)-thiomethyl-3-cephem-4-carboxylate] displayed a dose excreted at 6 h of 30%. Also, the MIC is 0.8 µg/mL in [2]; 0.4 µg/mL in data set [3]; 6.25 µg/mL in data set [4]; ≤ 0.05 µg/mL in [5]; 100 µg/mL in data set [6]; 0.8 µg/mL in data set [7].
With `Cc1oc2cc(O)c(O)cc2c(=O)c1C(=O)N[C@@H](C(=O)N[C@@H]1C(=O)N2C(C(=O)[O-])=C(C[n+]3ccccc3)CS[C@H]12)c1ccc(OCC(=O)O)cc1` [Example 40, Sodium 7β-[D-2-(4-carboxymethoxyphenyl)-2-(6,7-dihydroxy-2-methyl-4-oxo-4H-1-benzopyran-3-carboxamido)acetamido]-3-pyridiniummethyl-3-cephem-4-carboxylate], the dose excreted at 6 h in data set [8] was 39%. Moreover, the minimal inhibitory concentration (MIC) is 0.6 µg/mL in data set [2]; 0.8 µg/mL in [3]; 12.5 µg/mL in data set [4]; 0.1 µg/mL in [5]; 100 µg/mL in data set [6]; 0.2 µg/mL in data set [7]. Besides, the solubility in data set [1] was ≥ 300 mg/mL.
On to `Cc1oc2cc(O)c(O)cc2c(=O)c1C(=O)N[C@@H](C(=O)N[C@@H]1C(=O)N2C(C(=O)[O-])=C(C[n+]3ccc(C(N)=O)cc3)CS[C@H]12)c1ccc(OCC(=O)O)cc1` [Example 41, Sodium 7β-[D-2-(4-carboxymethoxyphenyl)-2-(6,7-dihydroxy-2-methyl-4-oxo-4H-1-benzopyran-3-carboxamido)acetamido]-3-(4-carbamoylpyridinium)-methyl-3-cephem-4-carboxylate], for which the dose excreted at 6 h in data set [8] was 74%. The MIC in data set [2] was 0.4 µg/mL; in data set [3], 0.4 µg/mL; in data set [4], 6.25 µg/mL; in data set [5], ≤ 0.05 µg/mL; in [6], 50 µg/mL; in [7] it was 0.2 µg/mL. Further, the solubility in data set [1] is ≥ 300 mg/mL.
As for `O=C(O)COc1ccc([C@@H](NC(=O)c2coc3cc(O)c(O)cc3c2=O)C(=O)N[C@@H]2C(=O)N3C(C(=O)[O-])=C(C[n+]4ccccc4)CS[C@H]23)cc1` [Example 44, Sodium 7β-[D-2-(4-carboxymethoxyphenyl)-2-(6,7-dihydroxy-4-oxo-4H-1-benzopyran-3-carboxamido)-acetamido]-3-pyridiniummethyl-3-cephem-4-carboxylate], the dose excreted at 6 h in data set [8] stood at 40%. Also, the MIC in data set [2] was 0.8 µg/mL; in data set [3], 0.8 µg/mL; in data set [4], 25 µg/mL; in data set [5], ≤ 0.05 µg/mL; in data set [6], 25 µg/mL; in data set [7], 0.1 µg/mL. Further, in [1], the solubility was ≥ 300 mg/mL.
On to `NC(=O)c1cc[n+](CC2=C(C(=O)[O-])N3C(=O)[C@@H](NC(=O)[C@H](NC(=O)c4coc5cc(O)c(O)cc5c4=O)c4ccc(OCC(=O)O)cc4)[C@H]3SC2)cc1` [Example 45, Sodium 7β-[D-2-(4-carboxymethoxyphenyl)-2-(6,7-dihydroxy-4-oxo-4H-1-benzopyran-3-carboxamido)-acetamido]-3-(4-carbamoylpyridinium)methyl-3-cephem-4-carboxylate], for which the dose excreted at 6 h in [8] stood at 38%. Moreover, the MIC in data set [2] was 0.8 µg/mL; in [3] it was 0.8 µg/mL; in [4], 6.25 µg/mL; in data set [5], ≤ 0.05 µg/mL; in [6], 25 µg/mL; in [7], 0.1 µg/mL. Besides, in [1], the solubility was ≥ 300 mg/mL.
`O=C(O)COc1ccc([C@@H](NC(=O)c2coc3cc(O)c(O)cc3c2=O)C(=O)N[C@@H]2C(=O)N3C(C(=O)[O-])=C(C[n+]4ccc(CCS(=O)(=O)O)cc4)CS[C@H]23)cc1` [Example 46, Disodium 7β-[D-2-(4-carboxymethoxyphenyl)-2-(6,7-dihydroxy-4-oxo-4H-1-benzopyran-3-carboxamido)-acetamido]-3-[4-(2-sulfoethyl)pyridinium]methyl-3-cephem-4-carboxylate] had a dose excreted at 6 h in data set [8] of 62%. The MIC in data set [2] was 0.8 µg/mL; in data set [3], 0.4 µg/mL; in data set [4], 25 µg/mL; in [5] it was ≤ 0.05 µg/mL; in data set [6] it was 50 µg/mL; in [7], 0.4 µg/mL. The solubility in data set [1] was ≥ 300 mg/mL.
In turn, `CO[C@@]1(NC(=O)[C@H](NC(=O)c2c(C)oc3cc(O)c(O)cc3c2=O)c2ccc(OCC(=O)O)cc2)C(=O)N2C(C(=O)[O-])=C(C[n+]3ccc(C(N)=O)cc3)CS[C@@H]21` [Example 49, 7β-[D-2-(4-Carboxymethoxyphenyl)-2-(6,7-dihydroxy-2-methyl-4-oxo-4H-1-benzopyran-3-carboxamido)-acetamido]-7α-methoxy-3-(4-carbamoylpyridinium)-methyl-3-cephem-4-carboxylate] showed a dose excreted at 6 h in data set [8] of 35%.
In the case of `Cc1oc2cc(O)c(O)cc2c(=O)c1C(=O)N[C@@H](C(=O)N[C@@H]1C(=O)N2C(C(=O)[O-])=C(C[n+]3ccc(C(=O)O)cc3)CS[C@H]12)c1ccc(OCC(=O)O)cc1` [Example 55, Disodium 7β-[D-2-(4-carboxymethoxyphenyl)-2-(6,7-dihydroxy-2-methyl-4-oxo-4H-1-benzopyran-3-carboxamido)acetamido]-3-(4-carboxypyridinium)-methyl-3-cephem-4-carboxylate], the MIC in data set [2] is 0.4 µg/mL; in [3] it was 0.4 µg/mL; in data set [4], 6.25 µg/mL; in data set [5], ≤ 0.05 µg/mL; in [6], 100 µg/mL; in [7], ≤ 0.05 µg/mL. Also, the LD50 in data set [9] is ≥ 4000 mg/kg.
For the compound `Cc1oc2cc(O)c(O)cc2c(=O)c1C(=O)N[C@@H](C(=O)N[C@@H]1C(=O)N2C(C(=O)[O-])=C(C[n+]3ccc(C(N)=O)cc3)CS[C@H]12)c1ccc(OCC(=O)O)cc1` [Example 57, 7β-[D-2-(4-Carboxymethoxyphenyl)-2-(6,7-dihydroxy-2-methyl-4-oxo-4H-1-benzopyran-3-carboxamido)acetamido]-3-(4-carbamoylpyridinium)methyl-3-cephem-4-carboxylate], in [9], the LD50 is ≥ 4000 mg/kg.
